The record followed here is US9670210B2, “Cyclopropylamines as LSD1 inhibitors” (Incyte Corporation, priority 2014, dated 2017).

A value given as a limit tells only on which side of the number the result lay.

The target of this assay is LSD-1 enzyme (Homo sapiens (Human), UniProt O60341).
Protocol: LSD1 Histone Demethylase Biochemical Assay
LANCE LSD1/KDM1A demethylase assay-10 μL of 1 nM LSD-1 enzyme (ENZO BML-SE544-0050) in the assay buffer (50 mM Tris, pH 7.5, 0.01% Tween-20, 25 mM NaCl, 5 mM DTT) were preincubated for 1 hour at 25° C. with 0.8 μL compound/DMSO dotted in black 384 well polystyrene plates. […] After stopping the reactions plates were incubated for 30 minutes and read on a PHERAstar FS plate reader (BMG Labtech).
For `N#Cc1cccc(CC2(CN[C@@H]3C[C@H]3c3ccccc3)CCN(CC3(C(=O)O)CCC3)CC2)c1` [Example 57, 1-{[4-(3-cyanobenzyl)-4-({[(1R,2S)-2-phenylcyclopropyl]amino}methyl)piperidin-1-yl]methyl}cyclobutanecarboxylic acid], the half-maximal inhibitory concentration (IC50) (in general, the concentration at which inhibition is half-maximal) is under 0.1 µM.

`CC1(CN[C@@H]2C[C@H]2c2ccccc2)CCN(C(=O)c2cnc(N)nc2)CC1` [Example 48, 5-{[4-methyl-4-({[(1R,2S)-2-phenylcyclopropyl]amino}methyl)piperidin-1-yl]carbonyl}pyrimidin-2-amine] showed an IC50 of under 0.1 µM.

Turning to `COCC1(CN[C@@H]2C[C@H]2c2ccccc2)CCN(CC2(C(=O)O)CCCC2)CC1` [Example 37, 1-{[4-(methoxymethyl)-4-({[(1R,2S)-2-phenylcyclopropyl]amino}methyl)piperidin-1-yl]methyl}cyclopentanecarboxylic acid], the half-inhibitory concentration (IC50) is under 0.1 µM.

As for `O=C(c1ccc(F)cc1)N1CC(CN[C@@H]2C[C@H]2c2ccccc2)C1` (relative stereo) [Example 28, N-{[1-(4-Fluorobenzoyl)azetidin-3-yl]methyl}-trans-2-phenylcyclopropanamine], the 50% inhibitory concentration (IC50) is under 0.1 µM.

`COc1ccc(CC2(CN[C@@H]3C[C@H]3c3ccccc3)CCN(CC3(C(=O)O)CCC3)CC2)cc1` [Example 99, 1-{[4-(4-methoxybenzyl)-4-({[(1R,2S)-2-phenylcyclopropyl]amino}methyl)piperidin-1-yl]methyl}cyclobutanecarboxylic acid] had a concentration for half-maximal inhibition (IC50) of under 0.1 µM.

In the case of `O=C(O)C1(CN2CCC(CN[C@@H]3C[C@H]3c3ccccc3)(COc3ccccc3F)CC2)CCC1` [Example 76, 1-{[4-[(2-fluorophenoxy)methyl]-4-({[(1R,2S)-2-phenylcyclopropyl]amino}methyl)piperidin-1-yl]methyl}cyclobutanecarboxylic acid], the 50% inhibitory concentration (IC50) is under 0.1 µM.

Compound `CNC(=O)c1cccc(OCC2(CN[C@@H]3C[C@H]3c3ccccc3)CCN(CC3(C(=O)O)CC3)CC2)n1` [Example 91, 1-{[4-[({6-[(methylamino)carbonyl]pyridin-2-yl}oxy)methyl]-4-({[(1R,2S)-2-phenylcyclopropyl]amino}methyl)piperidin-1-yl]methyl}cyclopropanecarboxylic acid] showed a 50% inhibitory concentration (IC50) of under 0.1 µM.

As for `N#Cc1ccc(CN2CC(CN[C@@H]3C[C@H]3c3ccccc3)C2)cc1` (relative stereo) [Example 6, 4-[(3-{[(trans-2-Phenylcyclopropyl)amino]methyl}azetidin-1-yl)methyl]benzonitrile], the half-maximal inhibitory concentration (IC50) is under 0.1 µM.

Compound `O=C(c1cccc(F)c1)N1CC(CN[C@@H]2C[C@H]2c2ccccc2)C1` (relative stereo) [Example 29, N-{[1-(3-Fluorobenzoyl)azetidin-3-yl]methyl}-trans-2-phenylcyclopropanamine] registered an IC50 of under 0.1 µM.

In turn, `N#Cc1ccc(OCC2(CN[C@@H]3C[C@H]3c3ccccc3)CCN(CC3(C(=O)O)CC3)CC2)cc1` [Example 81, 1-{[4-[(4-cyanophenoxy)methyl]-4-({[(1R,2S)-2-phenylcyclopropyl]amino}methyl)piperidin-1-yl]methyl}cyclopropanecarboxylic acid] displayed an IC50 of under 0.1 µM.

For `COCC1(CNC2CC2c2ccccc2OC)CCN(CC2(C(=O)O)CCC2)CC1` (stereo not shown) [Example 66, 1-{[4-(methoxymethyl)-4-({[2-(2-methoxyphenyl)cyclopropyl]amino}methyl)piperidin-1-yl]methyl}cyclobutanecarboxylic acid], the half-maximal inhibitory concentration (IC50) is under 0.1 µM.

For `O=C(N1CCC(O)(c2ccccc2)CC1)N1CC(CN[C@@H]2C[C@H]2c2ccccc2)C1` (relative stereo) [Example 17, 4-Phenyl-1-[(3-{[(trans-2-phenylcyclopropyl)amino]methyl}azetidin-1-yl)carbonyl]piperidin-4-ol], the IC50 is under 0.1 µM.

Turning to `O=C(Nc1ccc(F)cc1)N1CC(CN[C@@H]2C[C@H]2c2ccccc2)C1` (relative stereo) [Example 21, N-(4-Fluorophenyl)-3-{[(trans-2-phenylcyclopropyl)amino]methyl}azetidine-1-carboxamide], the IC50 was under 0.1 µM.
